From patent US20250376473A1, “PRMTS INHIBITOR AND USE THEREOF” (Cytosinlab Therapeutics Co., Ltd., priority 2022, published 2025)
pIC50: −log10 of the molar value. Read-outs that look alike come from different tables or passages of the source.

Legend:
HCT116 MTAP WT cells = test: Proliferation inhibition of HCT116 cells in vitro (CellTiter Glo); format: cell-based; details: 6 days, 9 concentrations starting from 30 μM, read-out: Cell proliferation inhibition rate HCT116 MTAP WT IC50 (nm)
Description: (§1) Biological Test Example 2 Proliferation Inhibition of HCT116 and HCT116 MTAP-KO Cells in Vitro
(§2) HCT116 cell line was purchased from the Chinese Academy of Sciences Cell Bank, and the MTAP gene was knocked out by CRISPR/Cas9 technology to obtain HCT116-MTAP-KO cell line.
(§3) McCoy's 5A medium (Gibco, catalog No. 16600082), fetal bovine serum (Gibco, catalog No. 10099141C), penicillin-streptomycin double antibody (Gibco, catalog No. 15140122), pancreatic enzyme (Gibco, catalog No. 25200056), CellTiter Glo assay kit (Promega, catalog No. G7572), 384-well transparent flat-bottomed black walled cell culture plate (Corning, catalog No. 3764), ultra micro sampler (Tecan, catalog No.D300e), Multimode reader (Biotek, catalog No. SynergyHTX)
(§4) 1. Cell culture: HCT116 and HCT116-MTAP-KO cells were cultured in McCoy'5A medium+10% fetal bovine serum+1% penicillin-streptomycin double antibody; to ensure that they were always in the logarithmic growth phase and the cell viability greater than 95%.
(§5) 2. Compound concentration gradient preparation: The compound to be tested was added to a 384-well plate using an ultra micro sampler, starting from 30 μM (HCT116 cells) or 3 μM (HCT116-MTAP-KO cells), and diluted with DMSO at 3 times for a total of 9 concentrations and set up three duplicate wells.
(§6) 3. Treatment of cells with compounds: Trypsin-digested HCT116 or HCT116-MTAP-KO cell suspension was added to the 384-well plates spotted with the compounds to be tested at 40 μL per well, i.e., 100 cells per well, and the final concentration of DMSO was 0.4%. The cell culture plate was incubated at 37° C. in a 5% CO2 incubator for 6 days.
(§7) 4. Detection: 20 μL of CellTiter Glo reagent was added to each well of the cell culture plate and incubated at room temperature for 30 minutes. A multimode reader was used to detect the luminescence signal at […].
(§8) The data was fitted with GraphPad Prism 8.0 software using a four parameter inhibitor-reaction model to obtain the IC50 value (half inhibitory concentration) of the test compounds.

[1] = tested on: HCT116-MTAP-KO cells (HCT116 MTAP null); test: Proliferation inhibition of HCT116 MTAP-KO cells in vitro (CellTiter Glo); format: cell-based; details: 6 days, 9 concentrations starting from 3 μM, read-out: Cell proliferation inhibition rate HCT116 MTAP null IC50 (nm)
Description: as §1, §2, §3, §4, §5, §6, §7, §8

| SMILES | pIC50 (HCT116 MTAP WT cells; Homo sapiens, HCT-116, 144 h) | pIC50 ([1]; HCT116-MTAP null, 144 h) | pIC50 (HCT116 MTAP WT cells) | pIC50 [1] |
| --- | --- | --- | --- | --- |
| Cc1cc2nc(N)c3cnc(C)n3c2cc1C(=O)N(Cc1ccc(C(F)(F)F)cn1)c1cn(C)nc1C [Example 188, 4-Amino-N-(1,3-dimethyl-1H-pyrazol-4-yl)-1,7-dimethyl-N-((5-(trifluoromethyl)pyridin-2-yl)methyl)imidazolo[1,5-a]quinoxalin-8-carboxamide] | 5.00 to 6.00 | > 7.00 |  |  |
| Cc1nn(C)cc1N(Cc1ccc(OC2CC2)cn1)C(=O)c1cc2c(cn1)nc(N)c1cnc(C)n12 [Example 189] | 6.00 to 7.00 | > 7.00 |  |  |
| Cc1nn(C)cc1N(Cc1ccc(C(F)(F)F)cn1)C(=O)c1ccc2nc(N)c3c(C)nc(C)n3c2c1 [Example 190] | 5.00 to 6.00 | 6.00 to 7.00 |  |  |
| CCn1cc(N(Cc2ccc(C(F)(F)F)cn2)C(=O)c2cc3c(cn2)nc(N)c2cnc(C)n23)c(C)n1 [Example 192] | 5.00 to 6.00 | > 7.00 |  |  |
| Cc1nn(C)cc1N(Cc1ccc(C(F)(F)F)nn1)C(=O)c1cc2c(cc1F)nc(N)c1c(C)ncn12 [Example 193] | 6.00 to 7.00 | > 7.00 |  |  |
| Cc1cc(C)c(N(Cc2ccc(C(F)(F)F)cn2)C(=O)c2cc3c(cc2F)nc(N)c2cnc(C)n23)cn1 [Example 194] | 5.00 to 6.00 | > 7.00 |  |  |
| Cc1nn(C)cc1N(Cc1ccc(OC2COC2)cn1)C(=O)c1cc2c(cc1F)nc(N)c1c(C)ncn12 [Example 195] | 6.00 to 7.00 | > 7.00 |  |  |
| Cc1cnc(C)c(N(Cc2ccc(C(F)(F)F)cn2)C(=O)c2cc3c(cc2F)nc(N)c2cnc(C)n23)c1 [Example 196] | 5.00 to 6.00 | > 7.00 |  |  |
| COc1ccc(CN(C(=O)c2cc3c(cc2F)nc(N)c2c(C)ncn23)c2cn(C)nc2C)nn1 [Example 197] | 6.00 to 7.00 | > 7.00 |  |  |
| CCn1cc(N(Cc2ccc(OC3CC3)cn2)C(=O)c2cc3c(cn2)nc(N)c2cnc(C)n23)c(C)n1 [Example 199] | 5.00 to 6.00 | > 7.00 |  |  |
| Cc1ncc2c(N)nc3cc(F)c(C(=O)N(Cc4ccc(C(F)(F)F)cn4)c4ccnn4C)cc3n12 [Example 200] | 6.00 to 7.00 | > 7.00 |  |  |
| Cc1ncc2c(N)nc3cc(F)c(C(=O)N(Cc4ccc(C(F)(F)F)cn4)c4c(F)cnn4C)cc3n12 [Example 201] | 6.00 to 7.00 | > 7.00 |  |  |
| CCn1cc(N(Cc2ccc(C(F)(F)F)nn2)C(=O)c2cc3c(cc2F)nc(N)c2cnc(C)n23)c(C)n1 [Example 202] | 5.00 to 6.00 | 6.00 to 7.00 |  |  |
| Cc1nn(C)cc1N(Cc1ncc(C(F)(F)F)s1)C(=O)c1cc2c(cc1F)nc(N)c1cnc(C)n12 [Example 203] | 5.00 to 6.00 | > 7.00 |  |  |
| Cc1ncc2c(N)nc3cc(F)c(C(=O)N(Cc4ccc(OC5CC5)cn4)c4ccnn4C)cc3n12 [Example 205] | 6.00 to 7.00 | > 7.00 |  |  |
| CCn1nccc1N(Cc1ccc(C(F)(F)F)cn1)C(=O)c1cc2c(cc1F)nc(N)c1cnc(C)n12 [Example 206] | 6.00 to 7.00 | > 7.00 |  |  |
| Cc1ncc2c(N)nc3cc(F)c(C(=O)N(Cc4ccc(F)cn4)c4ccnn4C)cc3n12 [Example 207] | 5.00 to 6.00 | > 7.00 |  |  |
| Cc1nn(C)cc1N(Cc1ccc(C(F)(F)F)cn1)Cc1cc2c(cc1F)nc(N)c1cnc(C)n12 [Example 208] | 5.00 to 6.00 | > 7.00 |  |  |
| Cc1ncc2c(N)nc3cc(F)c(C(=O)N(Cc4ccc(C(F)(F)F)cn4)c4cnnn4C)cc3n12 [Example 209] | 5.00 to 6.00 | > 7.00 |  |  |
| Cc1cn(C)c(N(Cc2ccc(C(F)(F)F)cn2)C(=O)c2cc3c(cc2F)nc(N)c2cnc(C)n23)n1 [Example 210, 4-Amino-N-(1,4-dimethyl-1H-imidazol-2-yl)-7-fluoro-1-methyl-N-((5-(trifluoromethyl)pyridin-2-yl)methyl)imidazolo[1,5-a]quinoxalin-8-carboxamide] | 5.00 to 6.00 | > 7.00 |  |  |
| Cc1ncc2c(N)nc3cnc(C(=O)N(Cc4ccc(C(F)(F)F)cn4)c4ccnn4C)cc3n12 [Example 211] | 5.00 to 6.00 | > 7.00 |  |  |
| CCOc1ccc(CN(C(=O)c2cc3c(cc2F)nc(N)c2cnc(C)n23)c2ccnn2C)nc1 [Example 212] | 5.00 to 6.00 | > 7.00 |  |  |
| Cc1ncc2c(N)nc3cc(F)c(C(=O)N(Cc4cnn(C(F)(F)F)c4)c4ccnn4C)cc3n12 [Example 213] |  |  | 5.00 to 6.00 | > 7.00 |
| Cc1ccc(CN(C(=O)c2cc3c(cc2F)nc(N)c2cnc(C)n23)c2ccnn2C)nc1 [Example 214] | 5.00 to 6.00 | > 7.00 |  |  |

| SMILES | pIC50 (HCT116 MTAP WT cells; Homo sapiens, HCT-116, 144 h) | pIC50 ([1]; HCT116-MTAP null, 144 h) | pIC50 (HCT116 MTAP WT cells) | pIC50 [1] |
| --- | --- | --- | --- | --- |
| Cc1ncc2c(N)nc3cc(F)c(C(=O)N(Cc4ccc(OC5CC5)nn4)c4ccnn4C)cc3n12 [Example 215] | 5.00 to 6.00 | > 7.00 |  |  |
| Cc1ncc2c(N)nc3cc(F)c(C(=O)N(Cc4ccc(OC5COC5)cn4)c4ccnn4C)cc3n12 [Example 217] | 5.00 to 6.00 | > 7.00 |  |  |
| Cc1ncc2c(N)nc3cc(F)c(C(=O)N(Cc4ccc(N5CC(F)(F)C5)cn4)c4ccnn4C)cc3n12 [Example 219] | 5.00 to 6.00 | > 7.00 |  |  |
| COCCn1cc(CN(C(=O)c2cc3c(cc2F)nc(N)c2cnc(C)n23)c2ccnn2C)cn1 [Example 221] | 5.00 to 6.00 | 6.00 to 7.00 |  |  |
| Cc1ncc2c(N)nc3cc(F)c(C(=O)N(Cc4ccc(C(F)(F)F)nn4)c4ccnn4C)cc3n12 [Example 223] | 5.00 to 6.00 | > 7.00 |  |  |
| Cc1ncc2c(N)nc3cc(F)c(C(=O)N(Cc4cnn(C5CCOCC5)c4)c4ccnn4C)cc3n12 [Example 227] | 5.00 to 6.00 | 6.00 to 7.00 |  |  |
| Cc1ncc2c(N)nc3cc(F)c(C(=O)N(Cc4ncc(C(F)(F)F)cc4F)c4ccnn4C)cc3n12 [Example 228] | 6.00 to 7.00 | > 7.00 |  |  |
| Cc1ncc2c(N)nc3cc(F)c(C(=O)N(Cc4ccc(S(F)(F)(F)(F)F)cc4)c4ccnn4C)cc3n12 [Example 229] | 6.00 to 7.00 | > 7.00 |  |  |
| Cc1ncc2c(N)nc3cc(F)c(C(=O)N(Cc4cnn(C5COC5)c4)c4ccnn4C)cc3n12 [Example 231] | 5.00 to 6.00 | 6.00 to 7.00 |  |  |
| Cc1ncc2c(N)nc3cc(F)c(C(=O)N(Cc4ccncn4)c4ccnn4C)cc3n12 [Example 232] | 5.00 to 6.00 | 6.00 to 7.00 |  |  |
| Cc1ncc2c(N)nc3cc(F)c(C(=O)N(Cc4cnn(-c5ccccn5)c4)c4ccnn4C)cc3n12 [Example 234] | 5.00 to 6.00 | > 7.00 |  |  |
| COC1CCC1N(Cc1cn2cc(C(F)(F)F)ccc2n1)C(=O)c1cc2c(cc1F)nc(N)c1cnc(C)n12 (stereo not drawn) [Example 240] | 5.00 to 6.00 | > 7.00 |  |  |
| Cc1ncc2c(N)nc3cc(F)c(C(=O)N(Cc4cn5ccccc5n4)C(C)C(F)(F)F)cc3n12 (stereo not drawn) [Example 243] | 5.00 to 6.00 | 6.00 to 7.00 |  |  |
| CCN(Cc1cn2cc(C(F)F)ccc2n1)C(=O)c1cc2c(cc1F)nc(N)c1c(C)ncn12 [Example 244] | 5.00 to 6.00 | > 7.00 |  |  |
| COc1ccc(C2COCC(C)N2C(=O)c2cc3c(cc2F)nc(N)c2cnc(C)n23)nn1 (stereo not drawn) [Example 271] | 5.00 to 6.00 | > 7.00 |  |  |
| Cc1ncc2c(N)nc3cc(F)c(C(=O)N4C(C)COCC4c4ccc(C(F)(F)F)cn4)cc3n12 (stereo not drawn) [Example 273] | 5.00 to 6.00 | > 7.00 |  |  |
| Cc1ncc2c(N)nc3cc(F)c(C(=O)N4C(C)COCC4c4ccc(C(F)(F)F)cc4)cc3n12 (stereo not drawn) [Example 275] | 5.00 to 6.00 | > 7.00 |  |  |
| COc1ccc(C2COCC(C)N2C(=O)c2cc3c(cc2F)nc(N)c2c(C)ncn23)nn1 (stereo not drawn) [Example 278] | 6.00 to 7.00 | 6.00 to 7.00 |  |  |
| Cc1ncn2c1c(N)nc1cc(F)c(C(=O)N3C(C)COCC3c3ccc(C(F)(F)F)cn3)cc12 (stereo not drawn) [Example 280] |  | > 7.00 | 6.00 to 7.00 |  |
| Cc1ncn2c1c(N)nc1cc(F)c(C(=O)N3C(C)COCC3c3ccc(C(F)(F)F)cc3)cc12 (stereo not drawn) [Example 282] | 5.00 to 6.00 | > 7.00 |  |  |
| CCN(Cc1cn2cc(C(F)(F)F)ccc2n1)C(=O)c1cc2c(cc1F)nc(N)c1c(C)ncn12 [Example 285] | 5.00 to 6.00 | > 7.00 |  |  |
| Cc1ncn2c1c(N)nc1ccc(C(=O)N(Cc3nc(-c4cccnn4)cs3)CC(C)C)cc12 [Example 294] | 5.00 to 6.00 | 6.00 to 7.00 |  |  |
| Cc1ncn2c1c(N)nc1ccc(C(=O)N(CC(C)C)C(C)c3nc(-c4ccccn4)cs3)cc12 (stereo not drawn) [Example 299] | 5.00 to 6.00 | > 7.00 |  |  |
| Cc1ncn2c1c(N)nc1ccc(C(=O)N(Cc3nc(N4CCOCC4)cs3)CC(C)C)cc12 [Example 301] | 5.00 to 6.00 | 6.00 to 7.00 |  |  |
